PubChem BioAssay AID2060895 (Molecular Pharmacology Branch, DTP, NCI, 2025)
pIC50: −log10 of the molar value. Values belong to the compound of their own block, whether it stands above or below them.

Test system: PDC 899932-113-R3-J6 complex spheroid viability
Assay: Anticancer human tumor 899932-113-R3-J6-PDC patient-derived melanoma cell line growth inhibition [RAS]
Conditions: for pIC50: curve of first compound; for viability, T/C: stronger effect = lower value
Procedure, shortened: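 Multi-cell-type spheroids: tumor cells plus HUVEC endothelial cells and mesenchymal stem cells. RAS-pathway inhibitors were combined with targeted agents, each dosed in half-log steps down from clinical Cmax, or from 10 microM when Cmax was unknown.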

[1] = second compound 0.000949 µM, first compound 0.0316 µM
[2] = second compound 0.000949 µM, first compound 0.1 µM
[3] = second compound 0.000949 µM, first compound 0.316 µM
[4] = second compound 0.000949 µM, first compound 1 µM
[5] = second compound 0.003 µM, first compound 0.0316 µM
[6] = second compound 0.003 µM, first compound 0.1 µM
[7] = second compound 0.003 µM, first compound 0.316 µM
[8] = second compound 0.003 µM, first compound 1 µM
[9] = second compound 0.00949 µM, first compound 0.0316 µM
[10] = second compound 0.00949 µM, first compound 0.1 µM
[11] = second compound 0.00949 µM, first compound 0.316 µM
[12] = second compound 0.00949 µM, first compound 1 µM
[13] = second compound 0.03 µM, first compound 0.0316 µM
[14] = second compound 0.03 µM, first compound 0.1 µM
[15] = second compound 0.03 µM, first compound 0.316 µM
[16] = second compound 0.03 µM, first compound 1 µM
[17] = second compound 0.0949 µM, first compound 0.0316 µM
[18] = second compound 0.0949 µM, first compound 0.1 µM
[19] = second compound 0.0949 µM, first compound 0.316 µM
[20] = second compound 0.0949 µM, first compound 1 µM
[21] = second compound 0.3 µM, first compound 0.0316 µM
[22] = second compound 0.3 µM, first compound 0.1 µM
[23] = second compound 0.3 µM, first compound 0.316 µM
[24] = second compound 0.3 µM, first compound 1 µM
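For viability, T/C in this document: spheroids exposed to agents for seven days before readout; 100% = DMSO vehicle control wells.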

- pIC50 (second compound 0.000949 µM): > 7.50
- pIC50 (second compound 0.003 µM): > 7.50
- pIC50 (second compound 0.00949 µM): > 7.50
- pIC50 (second compound 0.03 µM): > 7.50
- pIC50 (second compound 0.0949 µM): > 7.50
- pIC50 (second compound 0.3 µM): > 7.50
SMILES: CC(=O)OC12COC1CC(O)C1(C)C(=O)C(O)C3=C(C)C(OC(=O)C(O)C(NC(=O)OC(C)(C)C)c4ccccc4)CC(O)(C(OC(=O)c4ccccc4)C21)C3(C)C (stereo unspecified) + CCn1c(-c2cc(N3CCN(C)CC3)cnc2C(C)OC)c2c3cc(ccc31)-c1csc(n1)CC(NC(=O)C1CC1C)C(=O)N1CCCC(N1)C(=O)OCC(C)(C)C2
- viability, T/C [1]: 18.6%
- viability, T/C [2]: 18.4%
- viability, T/C [3]: 26.5%
- viability, T/C [4]: 36.3%
- viability, T/C (second compound 0.000949 µM, first compound 3.16 µM): 45.5%
- viability, T/C (second compound 0.000949 µM, first compound 10 µM): 47.2%
- viability, T/C [5]: 8.34%
- viability, T/C [6]: 10.3%
- viability, T/C [7]: 12.4%
- viability, T/C [8]: 14.1%
- viability, T/C (second compound 0.003 µM, first compound 3.16 µM): 18.3%
- viability, T/C (second compound 0.003 µM, first compound 10 µM): 21.1%
- viability, T/C [9]: 3.98%
- viability, T/C [10]: 3.52%
- viability, T/C [11]: 3.63%
- viability, T/C [12]: 3.09%
- viability, T/C (second compound 0.00949 µM, first compound 3.16 µM): 3.96%
- viability, T/C (second compound 0.00949 µM, first compound 10 µM): 4.11%
- viability, T/C [13]: 2.05%
- viability, T/C [14]: 1.55%
- viability, T/C [15]: 1.79%
- viability, T/C [16]: 1.78%
- viability, T/C (second compound 0.03 µM, first compound 3.16 µM): 1.72%
- viability, T/C (second compound 0.03 µM, first compound 10 µM): 1.3%
- viability, T/C [17]: 1.14%
- viability, T/C [18]: 1.02%
- viability, T/C [19]: 1.61%
- viability, T/C [20]: 0.79%
- viability, T/C (second compound 0.0949 µM, first compound 3.16 µM): 0.68%
- viability, T/C (second compound 0.0949 µM, first compound 10 µM): 0.72%
- viability, T/C [21]: 1.95%
- viability, T/C [22]: 0.96%
- viability, T/C [23]: 1.47%
- viability, T/C [24]: 0.52%
- viability, T/C (second compound 0.3 µM, first compound 3.16 µM): 0.57%
- viability, T/C (second compound 0.3 µM, first compound 10 µM): 0.59%

- pIC50 (second compound 0.000949 µM): 8.70
- pIC50 (second compound 0.003 µM): > 9.02
- pIC50 (second compound 0.00949 µM): > 9.02
- pIC50 (second compound 0.03 µM): > 9.02
- pIC50 (second compound 0.0949 µM): > 9.02
- pIC50 (second compound 0.3 µM): > 9.02
SMILES: CCc1c2c(nc3ccc(O)cc13)-c1cc3c(c(=O)n1C2)COC(=O)[C@]3(O)CC + CCn1c(-c2cc(N3CCN(C)CC3)cnc2C(C)OC)c2c3cc(ccc31)-c1csc(n1)CC(NC(=O)C1CC1C)C(=O)N1CCCC(N1)C(=O)OCC(C)(C)C2
- viability, T/C (second compound 0.000949 µM, first compound 0.000949 µM): 63.8%
- viability, T/C (second compound 0.000949 µM, first compound 0.003 µM): 39.8%
- viability, T/C (second compound 0.000949 µM, first compound 0.00949 µM): 36%
- viability, T/C (second compound 0.000949 µM, first compound 0.03 µM): 26.9%
- viability, T/C (second compound 0.000949 µM, first compound 0.0949 µM): 22.6%
- viability, T/C (second compound 0.000949 µM, first compound 0.3 µM): 23%
- viability, T/C (second compound 0.003 µM, first compound 0.000949 µM): 31.1%
- viability, T/C (second compound 0.003 µM, first compound 0.003 µM): 24.2%
- viability, T/C (second compound 0.003 µM, first compound 0.00949 µM): 16.4%
- viability, T/C (second compound 0.003 µM, first compound 0.03 µM): 16.1%
- viability, T/C (second compound 0.003 µM, first compound 0.0949 µM): 13.4%
- viability, T/C (second compound 0.003 µM, first compound 0.3 µM): 14%
- viability, T/C (second compound 0.00949 µM, first compound 0.000949 µM): 3.79%
- viability, T/C (second compound 0.00949 µM, first compound 0.003 µM): 3.32%
- viability, T/C (second compound 0.00949 µM, first compound 0.00949 µM): 3.11%
- viability, T/C (second compound 0.00949 µM, first compound 0.03 µM): 3.28%
- viability, T/C (second compound 0.00949 µM, first compound 0.0949 µM): 3.1%
- viability, T/C (second compound 0.00949 µM, first compound 0.3 µM): 3.34%
- viability, T/C (second compound 0.03 µM, first compound 0.000949 µM): 2.49%
- viability, T/C (second compound 0.03 µM, first compound 0.003 µM): 2.47%
- viability, T/C (second compound 0.03 µM, first compound 0.00949 µM): 2.92%
- viability, T/C (second compound 0.03 µM, first compound 0.03 µM): 2.25%
- viability, T/C (second compound 0.03 µM, first compound 0.0949 µM): 2.41%
- viability, T/C (second compound 0.03 µM, first compound 0.3 µM): 2.31%
- viability, T/C (second compound 0.0949 µM, first compound 0.000949 µM): 2.12%
- viability, T/C (second compound 0.0949 µM, first compound 0.003 µM): 2.87%
- viability, T/C (second compound 0.0949 µM, first compound 0.00949 µM): 2.12%
- viability, T/C (second compound 0.0949 µM, first compound 0.03 µM): 2.27%
- viability, T/C (second compound 0.0949 µM, first compound 0.0949 µM): 1.31%
- viability, T/C (second compound 0.0949 µM, first compound 0.3 µM): 1.12%
- viability, T/C (second compound 0.3 µM, first compound 0.000949 µM): 1.75%
- viability, T/C (second compound 0.3 µM, first compound 0.003 µM): 2.65%
- viability, T/C (second compound 0.3 µM, first compound 0.00949 µM): 2.22%
- viability, T/C (second compound 0.3 µM, first compound 0.03 µM): 1.86%
- viability, T/C (second compound 0.3 µM, first compound 0.0949 µM): 1.47%
- viability, T/C (second compound 0.3 µM, first compound 0.3 µM): 1.58%

- pIC50 (second compound 0.000949 µM): 8.23
- pIC50 (second compound 0.003 µM): > 8.50
- pIC50 (second compound 0.00949 µM): > 8.50
- pIC50 (second compound 0.03 µM): > 8.50
- pIC50 (second compound 0.0949 µM): > 8.50
- pIC50 (second compound 0.3 µM): > 8.50
SMILES: Nc1ccn(C2OC(CO)C(O)C2(F)F)c(=O)n1 (stereo unspecified) + CCn1c(-c2cc(N3CCN(C)CC3)cnc2C(C)OC)c2c3cc(ccc31)-c1csc(n1)CC(NC(=O)C1CC1C)C(=O)N1CCCC(N1)C(=O)OCC(C)(C)C2
- viability, T/C (second compound 0.000949 µM, first compound 0.00316 µM): 62.9%
- viability, T/C (second compound 0.000949 µM, first compound 0.01 µM): 38.6%
- viability, T/C [1]: 19.2%
- viability, T/C [2]: 10.9%
- viability, T/C [3]: 10.9%
- viability, T/C [4]: 12.7%
- viability, T/C (second compound 0.003 µM, first compound 0.00316 µM): 34.1%
- viability, T/C (second compound 0.003 µM, first compound 0.01 µM): 22.6%
- viability, T/C [5]: 9.17%
- viability, T/C [6]: 6.99%
- viability, T/C [7]: 7.8%
- viability, T/C [8]: 7.27%
- viability, T/C (second compound 0.00949 µM, first compound 0.00316 µM): 3.07%
- viability, T/C (second compound 0.00949 µM, first compound 0.01 µM): 3.15%
- viability, T/C [9]: 3.74%
- viability, T/C [10]: 3.5%
- viability, T/C [11]: 3.59%
- viability, T/C [12]: 3.95%
- viability, T/C (second compound 0.03 µM, first compound 0.00316 µM): 2.89%
- viability, T/C (second compound 0.03 µM, first compound 0.01 µM): 2.31%
- viability, T/C [13]: 3.09%
- viability, T/C [14]: 3.08%
- viability, T/C [15]: 2.1%
- viability, T/C [16]: 2.81%
- viability, T/C (second compound 0.0949 µM, first compound 0.00316 µM): 2.38%
- viability, T/C (second compound 0.0949 µM, first compound 0.01 µM): 1.69%
- viability, T/C [17]: 2.42%
- viability, T/C [18]: 2.17%
- viability, T/C [19]: 1.85%
- viability, T/C [20]: 2.61%
- viability, T/C (second compound 0.3 µM, first compound 0.00316 µM): 1.86%
- viability, T/C (second compound 0.3 µM, first compound 0.01 µM): 2%
- viability, T/C [21]: 2.22%
- viability, T/C [22]: 2.4%
- viability, T/C [23]: 2.26%
- viability, T/C [24]: 1.79%
